# Assay results taken from patent US20040081626A1, “Inhalation particles” (priority 1999, published 2004).
# Experiments:
# Type in all cases: physicochemical
# [1] = Particle size analysis by electrical low pressure impactor (ELPI), measured gravimetrically; settings: mass size distribution, dilution ratio 1:10
# Description: Referring now to FIG. 1b, the particle size distribution was measured by an electrical low pressure impactor (12) (ELPI) connected to a vacuum (13). The particles exiting the tubular tube were passed into a diluter (10), with a dilution ratio of 1:10, before entering the ELPI. Exhaust gas exit (11) was arranged in the diluter. To minimize temperature gradient, and thus to reduce the moisture condensation, the diluter, the line to the diluter and the gas line into the diluter were layered with heating elements, which were kept at a temperature higher than that of the solution dew point. […] It is shown that a narrow size distribution within the range of aerodynamic particle size of interest, i.e. at around 1-5 μm, was obtained.
# [2] = Particle crystallinity and polymorphism analysis by X-ray powder diffraction; settings: for FWHMav: broadening of diffraction maxima positioned at 11.3° and 18.4°
# Description: Crystallinity and polymorphism of the sample was studied by X-ray powder diffraction (Diffractometer D500, Siemens GmbH, Karlsruhe, Germany). A copper target X-ray (wavelength 0.1541 nm) tube was operated with the power of 40 kV×40 mA. For x-ray powder diffraction analysis, 10 mg of the sample was mounted to a specific cylindrical single crystal mini sample stage, which has a diameter of 10 mm and height of approximately 1 mm. […] The patterns obtained were identical. There were not significant differences in peak positions and additional peaks were not observed. […] The relative degree crystallinity of the powder was also determined based on the x-ray powder diffraction patterns. It is noticed that the powder was well crystallised. The maximum intensities were sharp and well above background intensities. The estimation was based on the broadening of the diffraction maxima (FWHM-values) positioned at 11.3° and 18.4°. It is seen that the relative degree of crystallinity of the powder is 21% higher than that of the reference powder.
# [3] = Particle shape and surface structure by FE-SEM; settings: 2 kV
# Source text: Referring now to FIG. 1c, individual particles were collected on the surface of a holey carbon film TEM grid (14) connected to a vacuum (15) after particle collection. The morphology of the particles were then imaged using a field emission low voltage scanning electron microscope (FE-SEM) operated at 2 kV acceleration voltage. FIGS. 4a to 4d are scanning electron microscope images of the powder (magnification ×20000 in FIGS. 4b, 4c, 4d and ×23000 in FIG. 4a).
aerodynamic particle size distribution [1],FWHMav [2] [°],polymorphism ([2]; diffraction pattern compared to reference beclomethasone dipropionate powder),particle diameter [3],particle shape and surface structure [3],Compound
1-5 μm,0.26,polymorphic crystal form class I,2-3 μm,spherical with rough surfaces,CCC(=O)OCC(=O)[C@@]1(OC(=O)CC)[C@@H](C)C[C@H]2[C@@H]3CCC4=CC(=O)C=C[C@]4(C)[C@@]3(Cl)[C@@H](O)C[C@@]21C [Obtained beclomethasone dipropionate powder]
–,0.33,–,–,–,"CCC(=O)OCC(=O)[C@@]1(OC(=O)CC)[C@@H](C)C[C@H]2[C@@H]3CCC4=CC(=O)C=C[C@]4(C)[C@@]3(Cl)[C@@H](O)C[C@@]21C [Reference powder, beclomethasone dipropionate, reference compound]"
